Test results taken from US12605344B2, “Nanoparticles encapsulating soluble biologics, therapeutics, and imaging agents” (The Trustees of Princeton University, priority 2014, dated 2026).

Assays:
[1] = Maximum loading giving stable nanoparticles (FNP); assay type: physicochemical; conditions: PBA-b-PAA nanoparticles by FNP
Excerpt: Increasing the percentage of core material necessitated the formation of larger particles. […] This may be because the addition of core material allows the PAA to more tightly pack due to charge shielding effects. Very high loadings of both lysozyme and vancomycin were obtained. Loading of lysozyme as high as 75 wt % was obtained without the formation of large precipitates, however, the particles were too large to analyze using dynamic light scattering (DLS).

[2] = Solubility in organic solvents; assay type: physicochemical; conditions: in chloroform and acetone

Compound	loading obtained with stable particles / without large precipitates [1]	solubility [2]
lysozyme	≤ 75 wt %	
CN[C@H](CC(C)C)C(=O)N[C@H]1C(=O)N[C@@H](CC(N)=O)C(=O)N[C@H]2C(=O)N[C@H]3C(=O)N[C@H](C(=O)N[C@H](C(=O)O)c4cc(O)cc(O)c4-c4cc3ccc4O)[C@H](O)c3ccc(c(Cl)c3)Oc3cc2cc(c3O[C@@H]2O[C@H](CO)[C@@H](O)[C@H](O)[C@H]2O[C@H]2C[C@](C)(N)[C@H](O)[C@H](C)O2)Oc2ccc(cc2Cl)[C@H]1O [Vancomycin, vancomycin]	up to 90 wt %	poorly soluble
